According to PubChem BioAssay AID1963443 (Molecular Pharmacology Branch, DTP, NCI, 2024):

Tested on: MDA-MB-231 complex spheroids, growth inhibition
Test: Anticancer human tumor MDA-MB-231 cell line growth inhibition [Asc];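 note: spheroids exposed to compounds for 7 days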
Conditions: for IC50: curve of first compound; for viability, T/C: stronger effect = lower value
Method in brief: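 Complex spheroids combining tumor cells with HUVEC endothelial cells and human MSCs, at 37 degrees C, 5% CO2; agents tested alone or combined, half-log dilutions from at or near clinical Cmax, or 10 microM if Cmax unknown.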

[1] = second compound 0.01 µM, first compound 0.00316 µM
[2] = second compound 0.01 µM, first compound 0.01 µM
[3] = second compound 0.01 µM, first compound 0.0316 µM
[4] = second compound 0.01 µM, first compound 0.1 µM
[5] = second compound 0.0316 µM, first compound 0.00316 µM
[6] = second compound 0.0316 µM, first compound 0.01 µM
[7] = second compound 0.0316 µM, first compound 0.0316 µM
[8] = second compound 0.0316 µM, first compound 0.1 µM
[9] = second compound 0.1 µM, first compound 0.00316 µM
[10] = second compound 0.1 µM, first compound 0.01 µM
[11] = second compound 0.1 µM, first compound 0.0316 µM
[12] = second compound 0.1 µM, first compound 0.1 µM
[13] = second compound 0.316 µM, first compound 0.00316 µM
[14] = second compound 0.316 µM, first compound 0.01 µM
[15] = second compound 0.316 µM, first compound 0.0316 µM
[16] = second compound 0.316 µM, first compound 0.1 µM
[17] = second compound 1 µM, first compound 0.00316 µM
[18] = second compound 1 µM, first compound 0.01 µM
[19] = second compound 1 µM, first compound 0.0316 µM
[20] = second compound 1 µM, first compound 0.1 µM

NC1CCC(NC2CC2c2ccccc2)CC1 (stereo not given) + CCN1C(C(=O)NC23CCC(C(=O)O)(CC2)CC3)C(c2cccc(Cl)c2F)C2(C(=O)Nc3cc(Cl)ccc32)C12CCCCC2
IC50 (second compound 0.03 µM): > 100 nM
IC50 (second compound 0.0949 µM): > 100 nM
IC50 (second compound 0.3 µM): > 100 nM
IC50 (second compound 0.949 µM): > 100 nM
IC50 (second compound 3 µM): > 100 nM
viability, T/C (second compound 0.03 µM, first compound 0.000316 µM): 91.2%
viability, T/C (second compound 0.03 µM, first compound 0.001 µM): 94.5%
viability, T/C (second compound 0.03 µM, first compound 0.00316 µM): 93.4%
viability, T/C (second compound 0.03 µM, first compound 0.01 µM): 95.2%
viability, T/C (second compound 0.03 µM, first compound 0.0316 µM): 91.8%
viability, T/C (second compound 0.03 µM, first compound 0.1 µM): 96.2%
viability, T/C (second compound 0.0949 µM, first compound 0.000316 µM): 101%
viability, T/C (second compound 0.0949 µM, first compound 0.001 µM): 103%
viability, T/C (second compound 0.0949 µM, first compound 0.00316 µM): 101%
viability, T/C (second compound 0.0949 µM, first compound 0.01 µM): 101%
viability, T/C (second compound 0.0949 µM, first compound 0.0316 µM): 100%
viability, T/C (second compound 0.0949 µM, first compound 0.1 µM): 102%
viability, T/C (second compound 0.3 µM, first compound 0.000316 µM): 102%
viability, T/C (second compound 0.3 µM, first compound 0.001 µM): 104%
viability, T/C (second compound 0.3 µM, first compound 0.00316 µM): 101%
viability, T/C (second compound 0.3 µM, first compound 0.01 µM): 102%
viability, T/C (second compound 0.3 µM, first compound 0.0316 µM): 102%
viability, T/C (second compound 0.3 µM, first compound 0.1 µM): 105%
viability, T/C (second compound 0.949 µM, first compound 0.000316 µM): 105%
viability, T/C (second compound 0.949 µM, first compound 0.001 µM): 105%
viability, T/C (second compound 0.949 µM, first compound 0.00316 µM): 105%
viability, T/C (second compound 0.949 µM, first compound 0.01 µM): 105%
viability, T/C (second compound 0.949 µM, first compound 0.0316 µM): 104%
viability, T/C (second compound 0.949 µM, first compound 0.1 µM): 106%
viability, T/C (second compound 3 µM, first compound 0.000316 µM): 90%
viability, T/C (second compound 3 µM, first compound 0.001 µM): 91%
viability, T/C (second compound 3 µM, first compound 0.00316 µM): 89.8%
viability, T/C (second compound 3 µM, first compound 0.01 µM): 88.2%
viability, T/C (second compound 3 µM, first compound 0.0316 µM): 87.5%
viability, T/C (second compound 3 µM, first compound 0.1 µM): 89.2%

NC1CCC(NC2CC2c2ccccc2)CC1 (stereo not given) + CNC(C)C(=O)NC1CN(S(=O)(=O)c2cccc(S(=O)(=O)N3CCC4CCC(C(=O)NC(c5ccccc5)c5ccccc5)N4C(=O)C(NC(=O)C(C)NC)C3)c2)CCC2CCC(C(=O)NC(c3ccccc3)c3ccccc3)N2C1=O
IC50 (second compound 0.01 µM): < 0.316 nM
IC50 (second compound 0.0316 µM): < 0.316 nM
IC50 (second compound 0.1 µM): < 0.316 nM
IC50 (second compound 0.316 µM): < 0.316 nM
IC50 (second compound 1 µM): < 0.316 nM
viability, T/C (second compound 0.01 µM, first compound 0.000316 µM): 4.48%
viability, T/C (second compound 0.01 µM, first compound 0.001 µM): 3.37%
viability, T/C [1]: 3.36%
viability, T/C [2]: 4.1%
viability, T/C [3]: 4.51%
viability, T/C [4]: 3.46%
viability, T/C (second compound 0.0316 µM, first compound 0.000316 µM): 1.91%
viability, T/C (second compound 0.0316 µM, first compound 0.001 µM): 3.37%
viability, T/C [5]: 2.61%
viability, T/C [6]: 2.96%
viability, T/C [7]: 2.47%
viability, T/C [8]: 2.27%
viability, T/C (second compound 0.1 µM, first compound 0.000316 µM): 2.48%
viability, T/C (second compound 0.1 µM, first compound 0.001 µM): 2.67%
viability, T/C [9]: 3.07%
viability, T/C [10]: 2.19%
viability, T/C [11]: 2.11%
viability, T/C [12]: 2.38%
viability, T/C (second compound 0.316 µM, first compound 0.000316 µM): 1.42%
viability, T/C (second compound 0.316 µM, first compound 0.001 µM): 3.18%
viability, T/C [13]: 2.55%
viability, T/C [14]: 0.99%
viability, T/C [15]: 1.23%
viability, T/C [16]: 0.81%
viability, T/C (second compound 1 µM, first compound 0.000316 µM): 1.08%
viability, T/C (second compound 1 µM, first compound 0.001 µM): 1.04%
viability, T/C [17]: 1.62%
viability, T/C [18]: 0.85%
viability, T/C [19]: 0.86%
viability, T/C [20]: 0.84%

O=C(c1ccc(F)c(F)c1Nc1ccc(I)cc1F)N1CC(O)([C@@H]2CCCCN2)C1 + CNC(C)C(=O)NC1CN(S(=O)(=O)c2cccc(S(=O)(=O)N3CCC4CCC(C(=O)NC(c5ccccc5)c5ccccc5)N4C(=O)C(NC(=O)C(C)NC)C3)c2)CCC2CCC(C(=O)NC(c3ccccc3)c3ccccc3)N2C1=O
IC50 (second compound 0.01 µM): < 3.16 nM
IC50 (second compound 0.0316 µM): < 3.16 nM
IC50 (second compound 0.1 µM): < 3.16 nM
IC50 (second compound 0.316 µM): < 3.16 nM
IC50 (second compound 1 µM): < 3.16 nM
viability, T/C [1]: 1.58%
viability, T/C [2]: 1.82%
viability, T/C [3]: 1.57%
viability, T/C [4]: 1.24%
viability, T/C (second compound 0.01 µM, first compound 0.316 µM): 0.45%
viability, T/C (second compound 0.01 µM, first compound 1 µM): 0.19%
viability, T/C [5]: 2%
viability, T/C [6]: 1.64%
viability, T/C [7]: 1.23%
viability, T/C [8]: 0.72%
viability, T/C (second compound 0.0316 µM, first compound 0.316 µM): 0.39%
viability, T/C (second compound 0.0316 µM, first compound 1 µM): 0.17%
viability, T/C [9]: 0.99%
viability, T/C [10]: 0.94%
viability, T/C [11]: 0.88%
viability, T/C [12]: 0.74%
viability, T/C (second compound 0.1 µM, first compound 0.316 µM): 0.5%
viability, T/C (second compound 0.1 µM, first compound 1 µM): 0.25%
viability, T/C [13]: 1.14%
viability, T/C [14]: 0.91%
viability, T/C [15]: 0.9%
viability, T/C [16]: 1.27%
viability, T/C (second compound 0.316 µM, first compound 0.316 µM): 0.57%
viability, T/C (second compound 0.316 µM, first compound 1 µM): 0.2%
viability, T/C [17]: 1.64%
viability, T/C [18]: 1.24%
viability, T/C [19]: 1.11%
viability, T/C [20]: 1.67%
viability, T/C (second compound 1 µM, first compound 0.316 µM): 1.13%
viability, T/C (second compound 1 µM, first compound 1 µM): 0.21%
